# Values of other authors as cited in US20040038863A1, “Medical indication” (priority 2002, published 2004).
# Conditions: in postmenopausal women; background value used to set the washout period
structure (smiles),measurement,value
"C=C1C[C@@H]2[C@H](CC[C@]3(C)C(=O)CC[C@@H]23)[C@@]2(C)C=CC(=O)C=C12 [exemestane, 6-methylenandrosta-1,4-diene-3,17-dione]",terminal elimination half-life,approximately 24 hours
